The values below come from patent US8216785B2, “Method for detecting neuroblastoma” (Fujifilm Corporation, priority 2008, dated 2012).

Format in all cases: cell-based
Assay [1] deals with Ad-LAPTM5-infected GOTO cells. Kind of assay: Cell death frequency along with LAPTM5 accumulation, trypan blue exclusion. To be noted: treated one day after Ad-LAPTM5 infection for additional one day. The method, then: As in the case of (a), the cells that had died upon treatment were assayed via trypan blue exclusion. A vertical line represents the standard deviation of two experiments.
(§1) Accordingly, whether or not LAPTM5 would undergo proteasomal or lysosomal proteolysis and whether or not LAPTM5 accumulation would be important for cell death were inspected. One day after Ad-LAPTM5 infection, the cells were treated with a proteasome inhibitor (ALLN or MG132) or a lysosome inhibitor (Bailomycin A1 and NH4Cl) for additional one day. Thereafter, the cells were recovered, samples were prepared, and Western blot analysis was performed. […] Further, this accumulation was also confirmed via fluorescent staining using the LAPTM5 antibody (FIG. 4b). […] Thus, LAPTM5 was considered to undergo proteasomal and lysosomal proteolysis, and LAPTM5 accumulation was considered to be deeply involved with induction of cell death. In order to examine whether or not LAPTM5 accumulation would be essential for induction of cell death, the influence of transfection of siRNA against LAPTM5 was then examined.

In assay [2] the test system is LAPTM5 in Ad-LAPTM5-infected GOTO cells. In words: LAPTM5 accumulation upon blocking proteasomal or lysosomal degradation, Western blot and fluorescent staining. To be noted: treated one day after Ad-LAPTM5 infection for additional one day. The method, then:
The cells were treated with a proteasome inhibitor (ALLN or MG132) or a lysosomal degradation inhibitor (Bafilimycin A1 or […]) 1 day later. The cells were recovered 1 day later, the samples were prepared, and Western blot analysis was then carried out. The prepared samples were subjected to SDS-PAGE, and Western blot analysis was carried out using relevant antibodies.
As with the case of (a), the cells were treated, fixed, subjected to the immune reaction using the LAPTM5 antibody, and visualized with the use of the Texas Red complex secondary antibody.
After the control or LAPTM5 siRNA was transfected, the cells were treated as with the case of (a), and the samples were prepared. Western blot analysis was carried out using the LAPTM5 antibody.
as §1
Background: A western blot detects proteins with antibodies after separation by electrophoresis.

The subject of assay [3] is GOTO cells. In words: Treatment with MPP+ or H2O2: cell death, LAPTM5 expression (quantitative RT-PCR), MYCN expression (Western blot). To be noted: for LAPTM5 expression / frequency of cell death: MPP+ 1 or 2 mM 24 hours, H2O2 100 or 200 uM 48 hours; for MYCN expression: MPP+ or H2O2 treatment. The method, then: In FIG. 5(a), the GOTO cells were treated with MPP+ (1 or 2 mM) for 24 hours or with H2O2 (100 or 200 uM) for 48 hours. Thereafter, the dead cells were assayed via trypan blue exclusion. The LAPTM5 expression level was analyzed via quantitative RT-PCR. A vertical line represents the standard deviation of two experiments.
The prepared samples were subjected to SDS-PAGE, and Western blot analysis was carried out using relevant antibodies.
The cause for NB cell degeneration upon regression of favorable NB tumors has not yet been elucidated. […] This indicates a common mechanism between NB tumor regression and cell degeneration in the case of neurodegenerative diseases. Mitochondrial injury and oxidative stress are known to be deeply involved in neuron degeneration in the case of neurodegenerative disease. […] MYCN proteins are known to not only activate but also suppress transcription of various target genes. Accordingly, MYCN proteins that have been activated via amplification were considered to suppress activation of LAPTM5 transcription induced by stress. Thus, whether or not MYCN would directly bind to a site in the vicinity of the transcription initiation point of the LAPTM5 gene was inspected via ChIP assay. […] Meanwhile, the IMR32 cell line is known to differentiate into nerve cells via treatment with retinoic acid.

Assay [4] concerns GOTO cells that stably express GFP-LC3. In words: Treatment with an LMP inducer, immunoblot of GFP-LC3 type II and p62/SQSTM1. To be noted: CPX 100 or 300 μg/ml. The method, then: The GOTO cells (1×10^6 cells/well) that stably express GFP-LC3 were sowed on a 6-well plate and treated with ciprofloxican (CPX) (100 or 300 μg/ml) or a solvent thereof (0.1N hydrochloric acid) so as to induce LMP. The total cell extract obtained from the treated cells was electrophoresed via SDS-PAGE and subjected to immunoblot analysis using antibodies reacting with relevant proteins.
LAPTM5 is known to be a membrane protein that localizes in the lysosome. […] Such changes in LTR staining patterns result from LMP, which indicates destabilization and destruction of the lysosome. LMP was observed along with an increase in LAPTM5-induced cell death (2.7 times in GOTO cell (p=0.0007) and 5.4 times in IMR32 cell (p=0.0108), compared with Ad-LacZ cell; FIG. 11). […] Accordingly, LAPTM5-induced LMP was deduced to induce blocking of the autophagy pathway. […] In conformity with the results of in vitro observation, elevated expression of p62/SQSTM1, ubiquitinated proteins, and cathepsin D was also observed via immunohistological staining (FIG. 3f). […] At the same time, lysosome instability induced by LAPTM5 was considered to induce accumulation of immature autophagic vesicles and ubiquitinated proteins.

Assay [5] has as its system IMR32 cells. Kind of assay: Frequency of dead cells via trypan blue exclusion after adenovirus infection. To be noted: zVAD 100 μM. The method, then:
(§2) The cells that had been sowed under the same conditions as in (b) were infected with the same MOIs of Ad-LacZ or Ad-LAPTM5. Also, the cell lines were treated or not treated with the pan-caspase inhibitor, zVAD-fink. The number of dead cells was determined via trypan blue exclusion 2 days and 4 days after infection and was indicated in terms of percentage. A vertical line represents the standard deviation of two experiments.
(§3) In order to inspect whether or not LAPTM5 expression is associated with cell death of neuroblastoma cells, the influence of forced LAPTM5 expression in the neuroblastoma cell line was inspected using the adenovirus-mediated expression system. Cell death and the survival rate were assayed by sowing the cells on a 24-well plate and infecting the cells with the selected MOIs of viruses (multiplicities of infection; PFU/cell). The number of dead cells was determined via trypan blue exclusion 2 or 4 days after infection. The pan-caspase inhibitor, zVAD-fml, was used at a concentration of 100 μM. At least 200 cells were counted in each experiment. The number of survived cells was determined via colorimetric assay using a water-soluble tetrazolium salt (the cell counting kit-8; Dojindo Laboratories).

Assay [6] deals with GOTO cells. The description is as above. To be noted: zVAD 100 μM. The method, then:
as §2, §3

Non-standard residues stand in square brackets, D forms with d. Residues, ends and D or L forms follow the SMILES beside them. *: point of attachment. Nle = CCCC[C@H](N)C(=O)O; Cbz = O=C(OCc1ccccc1)*; CH2F = FC*

Consider `CCCC[C@@H](C=O)NC(=O)[C@H](CC(C)C)NC(=O)[C@H](CC(C)C)NC(C)=O` [ALLN] (Ac-Leu-Leu-[Nle]-aldehyde), for which the cell death frequency entry in assay [1] was “significantly increased”. Also, the “accumulation of expressed LAPTM5” value in assay [2] is recorded as “significantly accumulated”.

As to `CO/C1=C\C(C)=C\[C@@H](C)[C@@H](O)[C@@H](C)C/C(C)=C/C=C/[C@H](OC)[C@@H]([C@@H](C)[C@@H](O)[C@H](C)[C@@]2(O)C[C@@H](O)[C@H](C)[C@@H](C(C)C)O2)OC1=O` [Bafilomycin A1], in assay [1], the cell death frequency entry was “significantly increased”. Further, the “accumulation of expressed LAPTM5” value in assay [2] was “significantly accumulated”.

Turning to `OO` [H2O2], in assay [3], the LAPTM5 expression result was “activated”, the “frequency of cell death” value is “frequency of concentration-dependent cell death increased” and the MYCN expression result is “decrease”.

Take `CC(C)C[C@@H](C=O)NC(=O)[C@H](CC(C)C)NC(=O)[C@H](CC(C)C)NC(=O)OCc1ccccc1` [MG132] (Cbz-Leu-Leu-Leu-aldehyde): in assay [1], the cell death frequency entry is reported as “significantly increased”. Moreover, the “accumulation of expressed LAPTM5” value in assay [2] was “significantly accumulated”.

As to `C[n+]1ccc(-c2ccccc2)cc1` [MPP+, 1-methyl-4-phenylpridinium], in assay [3], the LAPTM5 expression entry is recorded as “activated”, the “frequency of cell death” value is “frequency of concentration-dependent cell death increased” and the MYCN expression result is given as “decrease”.

As for `Cl.N` [NH4Cl], in assay [1], the cell death frequency result was “significantly increased”. The “accumulation of expressed LAPTM5” value in assay [2] is reported as “significantly accumulated”.

Turning to `O=C(O)c1cn(C2CC2)c2cc(N3CCNCC3)c(F)cc2c1=O` [ciprofloxacin], in assay [4], the LC3-II detection result is reported as “LC3-II was detected” and the p62/SQSTM1 protein accumulation result is listed as “p62/SQSTM1 protein accumulation was observed”.

For `COC(=O)C[C@H](NC(=O)[C@H](C)NC(=O)[C@@H](NC(=O)OCc1ccccc1)C(C)C)C(=O)CF` [zVAD-fmk] (Cbz-Val-Ala-Asp(OMe)-CH2F), the “inhibition of Ad-LAPTM5-induced cell death by caspase inhibitor” value in assay [5] and in assay [6] was “would not be inhibited” each time.
